Data taken from ChEMBL document CHEMBL5291721, “A preclinical secondary pharmacology resource illuminates target-adverse drug reaction associations of marketed drugs” (Nat Commun, 2023).

Tests used:
[1] = molecular target: Sodium-dependent noradrenaline transporter (Homo sapiens, UniProt P23975)
[2] = molecular target: T1, Alpha-2A adrenergic receptor (Homo sapiens, UniProt P08913); assay type: functional, cell-based
T1 sequence (P08913 whole entry): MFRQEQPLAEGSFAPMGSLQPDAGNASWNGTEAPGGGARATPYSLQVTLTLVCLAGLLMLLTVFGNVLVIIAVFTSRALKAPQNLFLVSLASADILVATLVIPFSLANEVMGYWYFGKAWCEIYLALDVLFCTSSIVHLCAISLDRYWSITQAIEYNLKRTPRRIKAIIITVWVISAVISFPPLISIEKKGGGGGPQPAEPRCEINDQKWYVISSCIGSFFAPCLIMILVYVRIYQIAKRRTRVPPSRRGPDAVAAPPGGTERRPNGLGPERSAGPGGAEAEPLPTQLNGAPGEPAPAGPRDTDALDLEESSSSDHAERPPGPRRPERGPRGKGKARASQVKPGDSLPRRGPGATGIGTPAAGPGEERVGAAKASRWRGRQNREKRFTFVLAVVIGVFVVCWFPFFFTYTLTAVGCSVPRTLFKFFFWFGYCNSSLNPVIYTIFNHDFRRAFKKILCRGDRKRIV

[3] = molecular target: Growth hormone secretagogue receptor type 1 (Homo sapiens, UniProt Q92847)
Bile salt export pump = Bile salt export pump (Homo sapiens, UniProt O95342); assay type: functional
[4] = molecular target: T2, Prostaglandin G/H synthase 1 (Rattus norvegicus, UniProt Q63921); assay type: functional
T2 sequence (Q63921 whole entry): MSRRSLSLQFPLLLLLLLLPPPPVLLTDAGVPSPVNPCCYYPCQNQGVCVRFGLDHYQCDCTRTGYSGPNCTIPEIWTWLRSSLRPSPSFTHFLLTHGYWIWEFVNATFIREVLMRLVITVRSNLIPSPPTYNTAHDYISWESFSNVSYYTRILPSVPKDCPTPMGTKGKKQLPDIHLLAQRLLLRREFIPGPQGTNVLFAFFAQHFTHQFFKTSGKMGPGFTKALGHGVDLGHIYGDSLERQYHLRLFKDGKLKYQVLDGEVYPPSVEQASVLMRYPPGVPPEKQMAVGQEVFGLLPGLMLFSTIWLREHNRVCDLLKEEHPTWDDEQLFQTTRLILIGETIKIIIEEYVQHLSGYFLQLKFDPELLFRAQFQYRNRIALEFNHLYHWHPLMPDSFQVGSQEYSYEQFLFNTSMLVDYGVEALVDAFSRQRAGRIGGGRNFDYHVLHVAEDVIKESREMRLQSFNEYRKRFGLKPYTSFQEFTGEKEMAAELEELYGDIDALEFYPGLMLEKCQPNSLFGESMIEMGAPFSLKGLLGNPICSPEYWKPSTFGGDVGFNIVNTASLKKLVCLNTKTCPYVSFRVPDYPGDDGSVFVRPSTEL

[5] = molecular target: T3, 5-hydroxytryptamine receptor 2C (Homo sapiens, UniProt P28335)
T3 sequence (P28335 whole entry): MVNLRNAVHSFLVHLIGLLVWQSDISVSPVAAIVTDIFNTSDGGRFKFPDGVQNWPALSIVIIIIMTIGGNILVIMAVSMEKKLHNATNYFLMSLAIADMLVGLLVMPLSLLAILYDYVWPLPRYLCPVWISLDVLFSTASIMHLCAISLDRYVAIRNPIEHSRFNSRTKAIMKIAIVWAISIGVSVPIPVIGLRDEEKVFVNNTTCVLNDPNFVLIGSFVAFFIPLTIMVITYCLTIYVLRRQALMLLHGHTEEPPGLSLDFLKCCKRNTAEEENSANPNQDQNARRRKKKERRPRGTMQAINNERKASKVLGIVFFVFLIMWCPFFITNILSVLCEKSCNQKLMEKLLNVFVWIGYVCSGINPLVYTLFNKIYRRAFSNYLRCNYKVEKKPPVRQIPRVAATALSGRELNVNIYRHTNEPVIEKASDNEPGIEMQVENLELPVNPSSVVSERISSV

Melanocortin receptor 3 = Melanocortin receptor 3 (Homo sapiens, UniProt P41968)
[6] = molecular target: 3',5'-cyclic-AMP phosphodiesterase 4D (Homo sapiens, UniProt Q08499); assay type: functional
[7] = molecular target: T4, Cholecystokinin receptor type A (Homo sapiens, UniProt P32238)
T4 sequence (P32238 whole entry): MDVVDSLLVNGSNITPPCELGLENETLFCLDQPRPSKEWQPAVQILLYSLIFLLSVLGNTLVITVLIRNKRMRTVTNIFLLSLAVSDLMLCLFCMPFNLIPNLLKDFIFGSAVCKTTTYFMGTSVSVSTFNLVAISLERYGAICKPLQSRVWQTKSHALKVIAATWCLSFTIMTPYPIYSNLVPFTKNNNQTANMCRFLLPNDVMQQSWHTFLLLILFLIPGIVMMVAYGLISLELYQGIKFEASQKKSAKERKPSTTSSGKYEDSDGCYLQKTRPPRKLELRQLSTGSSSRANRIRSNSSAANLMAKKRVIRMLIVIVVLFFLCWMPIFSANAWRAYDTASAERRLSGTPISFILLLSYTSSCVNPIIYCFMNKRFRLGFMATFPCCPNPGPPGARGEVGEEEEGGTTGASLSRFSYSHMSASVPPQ

[8] = molecular target: cGMP-inhibited 3',5'-cyclic phosphodiesterase 3A (Homo sapiens, UniProt Q14432); assay type: functional
[9] = molecular target: 5-hydroxytryptamine receptor 2B (Homo sapiens, UniProt P41595); assay type: functional, cell-based
[10] = molecular target: T5, Amine oxidase [flavin-containing] A (Homo sapiens, UniProt P21397); assay type: functional
T5 sequence (P21397 whole entry): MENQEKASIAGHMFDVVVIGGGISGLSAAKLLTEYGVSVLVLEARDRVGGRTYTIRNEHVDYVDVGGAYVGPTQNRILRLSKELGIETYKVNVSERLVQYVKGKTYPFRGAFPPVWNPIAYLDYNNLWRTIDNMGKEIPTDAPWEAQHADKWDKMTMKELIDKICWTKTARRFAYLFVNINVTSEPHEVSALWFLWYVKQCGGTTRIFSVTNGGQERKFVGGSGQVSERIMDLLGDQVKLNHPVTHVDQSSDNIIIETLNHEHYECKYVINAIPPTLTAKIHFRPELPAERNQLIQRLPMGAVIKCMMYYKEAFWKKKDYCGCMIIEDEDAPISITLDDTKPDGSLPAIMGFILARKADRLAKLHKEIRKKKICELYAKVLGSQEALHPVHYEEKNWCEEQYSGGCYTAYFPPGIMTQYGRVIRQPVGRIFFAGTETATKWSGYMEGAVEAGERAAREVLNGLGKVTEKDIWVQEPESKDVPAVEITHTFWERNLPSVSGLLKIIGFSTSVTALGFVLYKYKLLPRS
Further: assay procedure not described here.

Sequence of 3',5'-cyclic-AMP phosphodiesterase 4D (Q08499 whole entry): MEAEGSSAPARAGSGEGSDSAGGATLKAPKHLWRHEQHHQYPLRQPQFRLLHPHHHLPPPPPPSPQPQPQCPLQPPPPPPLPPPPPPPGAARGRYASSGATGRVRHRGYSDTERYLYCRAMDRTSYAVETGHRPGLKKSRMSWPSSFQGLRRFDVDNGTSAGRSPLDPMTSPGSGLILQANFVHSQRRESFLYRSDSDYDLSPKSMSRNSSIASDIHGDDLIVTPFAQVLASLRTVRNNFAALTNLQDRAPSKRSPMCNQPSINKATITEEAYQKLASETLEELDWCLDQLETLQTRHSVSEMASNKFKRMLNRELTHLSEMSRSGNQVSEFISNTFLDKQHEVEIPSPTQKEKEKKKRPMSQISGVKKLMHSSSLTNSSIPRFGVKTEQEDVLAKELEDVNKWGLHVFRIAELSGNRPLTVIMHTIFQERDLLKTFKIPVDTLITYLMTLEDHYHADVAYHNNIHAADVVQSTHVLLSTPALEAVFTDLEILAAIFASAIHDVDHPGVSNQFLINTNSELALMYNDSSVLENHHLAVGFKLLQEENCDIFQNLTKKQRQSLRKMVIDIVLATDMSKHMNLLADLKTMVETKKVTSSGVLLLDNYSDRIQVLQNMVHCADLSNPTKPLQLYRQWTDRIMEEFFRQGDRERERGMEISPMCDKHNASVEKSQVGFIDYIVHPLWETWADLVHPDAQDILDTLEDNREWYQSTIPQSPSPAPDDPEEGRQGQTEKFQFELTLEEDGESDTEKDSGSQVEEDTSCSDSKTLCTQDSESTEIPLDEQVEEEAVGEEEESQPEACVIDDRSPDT
Sequence of cGMP-inhibited 3',5'-cyclic phosphodiesterase 3A (Q14432 whole entry): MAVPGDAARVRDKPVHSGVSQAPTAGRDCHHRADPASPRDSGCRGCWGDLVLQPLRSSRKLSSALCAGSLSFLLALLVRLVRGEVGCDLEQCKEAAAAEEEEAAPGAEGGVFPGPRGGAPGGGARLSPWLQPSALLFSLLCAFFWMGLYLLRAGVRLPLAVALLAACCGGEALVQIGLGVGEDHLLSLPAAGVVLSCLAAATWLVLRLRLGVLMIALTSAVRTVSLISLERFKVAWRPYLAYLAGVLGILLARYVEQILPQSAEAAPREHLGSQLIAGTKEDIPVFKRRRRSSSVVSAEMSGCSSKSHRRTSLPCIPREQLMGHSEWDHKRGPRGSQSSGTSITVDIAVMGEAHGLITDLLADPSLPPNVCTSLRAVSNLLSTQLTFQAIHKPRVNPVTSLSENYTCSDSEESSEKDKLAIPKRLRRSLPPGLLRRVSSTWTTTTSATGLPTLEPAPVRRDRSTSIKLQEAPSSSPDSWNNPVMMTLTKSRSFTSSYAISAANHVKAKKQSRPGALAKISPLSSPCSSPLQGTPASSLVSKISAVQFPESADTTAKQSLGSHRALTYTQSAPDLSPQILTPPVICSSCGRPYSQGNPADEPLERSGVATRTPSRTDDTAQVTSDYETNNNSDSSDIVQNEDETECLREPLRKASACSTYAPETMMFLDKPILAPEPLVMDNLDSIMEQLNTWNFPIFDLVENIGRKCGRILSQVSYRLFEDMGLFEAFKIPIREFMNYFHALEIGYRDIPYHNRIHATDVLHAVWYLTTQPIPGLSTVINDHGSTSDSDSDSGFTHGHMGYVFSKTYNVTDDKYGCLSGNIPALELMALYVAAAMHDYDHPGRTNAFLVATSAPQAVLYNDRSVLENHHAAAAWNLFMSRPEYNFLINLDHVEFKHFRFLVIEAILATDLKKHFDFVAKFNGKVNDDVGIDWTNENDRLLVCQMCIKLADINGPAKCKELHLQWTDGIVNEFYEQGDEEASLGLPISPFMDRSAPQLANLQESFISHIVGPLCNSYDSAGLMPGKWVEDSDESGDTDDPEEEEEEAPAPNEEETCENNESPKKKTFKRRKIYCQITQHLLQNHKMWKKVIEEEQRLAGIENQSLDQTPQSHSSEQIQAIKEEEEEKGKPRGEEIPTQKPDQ
Sequence of Bile salt export pump (O95342 whole entry): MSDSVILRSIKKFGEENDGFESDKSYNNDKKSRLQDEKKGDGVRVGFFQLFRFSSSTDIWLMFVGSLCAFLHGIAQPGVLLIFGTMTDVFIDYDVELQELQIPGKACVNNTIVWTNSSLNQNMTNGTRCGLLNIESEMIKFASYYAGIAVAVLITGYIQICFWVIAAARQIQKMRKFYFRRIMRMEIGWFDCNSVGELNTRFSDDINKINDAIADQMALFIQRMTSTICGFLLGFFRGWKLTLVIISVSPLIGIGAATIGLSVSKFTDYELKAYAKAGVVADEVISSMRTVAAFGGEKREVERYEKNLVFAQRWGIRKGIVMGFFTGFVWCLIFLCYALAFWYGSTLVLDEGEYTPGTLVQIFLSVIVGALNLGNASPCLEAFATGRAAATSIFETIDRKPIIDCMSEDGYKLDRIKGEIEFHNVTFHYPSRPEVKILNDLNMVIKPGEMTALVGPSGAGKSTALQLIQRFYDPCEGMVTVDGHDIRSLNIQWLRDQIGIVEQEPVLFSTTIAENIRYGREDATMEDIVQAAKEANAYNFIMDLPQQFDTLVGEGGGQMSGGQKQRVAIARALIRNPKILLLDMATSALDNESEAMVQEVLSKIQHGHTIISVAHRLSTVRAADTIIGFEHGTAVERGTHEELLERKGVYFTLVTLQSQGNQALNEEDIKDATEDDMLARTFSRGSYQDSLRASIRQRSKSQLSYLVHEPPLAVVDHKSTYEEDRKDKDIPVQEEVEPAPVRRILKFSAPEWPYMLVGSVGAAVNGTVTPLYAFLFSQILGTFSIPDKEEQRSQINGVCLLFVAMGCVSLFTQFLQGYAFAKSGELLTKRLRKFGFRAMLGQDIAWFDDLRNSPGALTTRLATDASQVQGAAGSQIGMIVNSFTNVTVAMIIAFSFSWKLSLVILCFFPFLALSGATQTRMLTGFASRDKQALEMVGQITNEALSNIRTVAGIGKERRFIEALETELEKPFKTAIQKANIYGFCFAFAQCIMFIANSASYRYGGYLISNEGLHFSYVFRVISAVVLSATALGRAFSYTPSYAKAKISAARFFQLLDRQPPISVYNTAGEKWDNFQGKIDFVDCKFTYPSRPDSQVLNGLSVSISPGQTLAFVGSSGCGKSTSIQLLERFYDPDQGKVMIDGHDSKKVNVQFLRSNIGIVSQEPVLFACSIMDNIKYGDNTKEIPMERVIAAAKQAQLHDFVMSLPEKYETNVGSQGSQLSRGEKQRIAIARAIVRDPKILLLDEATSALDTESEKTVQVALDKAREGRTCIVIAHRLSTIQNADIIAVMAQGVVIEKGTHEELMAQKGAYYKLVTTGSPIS
Sequence of Melanocortin receptor 3 (P41968 whole entry): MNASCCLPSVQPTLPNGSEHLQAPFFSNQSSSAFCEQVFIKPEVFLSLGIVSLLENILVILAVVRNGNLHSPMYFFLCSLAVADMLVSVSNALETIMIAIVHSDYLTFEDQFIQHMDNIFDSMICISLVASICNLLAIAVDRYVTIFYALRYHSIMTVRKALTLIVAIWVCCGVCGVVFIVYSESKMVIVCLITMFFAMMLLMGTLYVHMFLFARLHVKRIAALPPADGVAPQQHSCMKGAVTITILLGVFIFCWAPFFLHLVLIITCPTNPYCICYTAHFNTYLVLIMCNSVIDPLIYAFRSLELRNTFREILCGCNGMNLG
Sequence of 5-hydroxytryptamine receptor 2B (P41595 whole entry): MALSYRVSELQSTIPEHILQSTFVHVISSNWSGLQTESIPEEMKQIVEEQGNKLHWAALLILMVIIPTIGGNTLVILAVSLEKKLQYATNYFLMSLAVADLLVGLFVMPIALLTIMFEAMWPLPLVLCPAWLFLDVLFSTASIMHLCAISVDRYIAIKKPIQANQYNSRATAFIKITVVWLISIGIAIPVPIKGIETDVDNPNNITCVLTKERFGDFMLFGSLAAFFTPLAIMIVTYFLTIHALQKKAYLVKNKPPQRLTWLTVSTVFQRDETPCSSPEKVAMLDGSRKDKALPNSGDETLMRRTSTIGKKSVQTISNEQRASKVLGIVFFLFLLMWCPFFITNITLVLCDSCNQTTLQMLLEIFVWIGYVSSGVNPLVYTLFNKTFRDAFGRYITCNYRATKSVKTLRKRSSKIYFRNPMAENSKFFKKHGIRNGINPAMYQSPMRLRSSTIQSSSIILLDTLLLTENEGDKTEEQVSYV
Sequence of Sodium-dependent noradrenaline transporter (P23975 whole entry): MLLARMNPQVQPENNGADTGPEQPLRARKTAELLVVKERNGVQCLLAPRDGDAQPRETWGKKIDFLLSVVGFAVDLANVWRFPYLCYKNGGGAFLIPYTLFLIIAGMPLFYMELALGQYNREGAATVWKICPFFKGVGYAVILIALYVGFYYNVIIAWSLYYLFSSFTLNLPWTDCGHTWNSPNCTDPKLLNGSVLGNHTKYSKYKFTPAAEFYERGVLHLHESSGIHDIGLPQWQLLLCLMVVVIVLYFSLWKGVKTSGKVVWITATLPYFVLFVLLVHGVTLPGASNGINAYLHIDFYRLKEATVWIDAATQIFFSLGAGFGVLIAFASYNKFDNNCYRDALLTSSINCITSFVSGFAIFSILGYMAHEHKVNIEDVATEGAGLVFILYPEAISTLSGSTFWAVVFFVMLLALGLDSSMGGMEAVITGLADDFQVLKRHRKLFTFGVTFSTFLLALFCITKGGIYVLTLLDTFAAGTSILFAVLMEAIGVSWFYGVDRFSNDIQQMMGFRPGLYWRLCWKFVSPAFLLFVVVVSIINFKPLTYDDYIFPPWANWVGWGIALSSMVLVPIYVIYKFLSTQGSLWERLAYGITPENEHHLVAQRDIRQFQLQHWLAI
Sequence of Growth hormone secretagogue receptor type 1 (Q92847 whole entry): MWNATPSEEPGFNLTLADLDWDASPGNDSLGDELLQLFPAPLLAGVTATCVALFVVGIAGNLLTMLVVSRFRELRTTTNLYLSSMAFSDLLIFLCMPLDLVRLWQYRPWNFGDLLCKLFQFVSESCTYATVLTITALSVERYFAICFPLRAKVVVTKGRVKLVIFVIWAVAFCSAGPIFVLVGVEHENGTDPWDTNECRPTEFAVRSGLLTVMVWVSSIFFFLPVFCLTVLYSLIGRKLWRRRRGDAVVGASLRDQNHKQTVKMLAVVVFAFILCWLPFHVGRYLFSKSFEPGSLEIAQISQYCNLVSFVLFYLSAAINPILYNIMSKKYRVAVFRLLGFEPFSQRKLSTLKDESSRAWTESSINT

Row | AC50 [1] [µM] | AC50 [2] [µM] | AC50 [3] [µM] | AC50 (Bile salt export pump) [µM] | AC50 [4] [µM] | AC50 [5] [µM] | AC50 (Melanocortin receptor 3) [µM] | AC50 [6] [µM] | AC50 [7] [µM] | AC50 [8] [µM] | AC50 [9] [µM] | AC50 [10] [µM] | SMILES
1 | > 10 | > 10 | > 30 | > 300 | > 30 | > 30 | > 30 | > 30 | > 30 | > 30 | > 10 | > 10 | CCC[C@@H]1C[C@@H](C(=O)N[C@@H]([C@H]2O[C@H](SC)[C@H](O)[C@@H](O)[C@H]2O)[C@H](C)Cl)N(C)C1 [CLINDAMYCIN]
2 | > 10 | > 10 | > 10 | 160 | > 10 | > 30 | > 10 | > 30 | > 10 | > 30 | > 10 | > 10 | O=C(O)c1cc(-c2ccc(F)cc2F)ccc1O [DIFLUNISAL]
3 | > 10 | > 10 | > 30 | > 300 | > 30 | > 10 | > 30 | > 10 | > 30 | > 10 | > 10 | 8.1 | NC(N)=Nc1nc(CSCCC(N)=NS(N)(=O)=O)cs1 [FAMOTIDINE]
4 | > 10 | > 10 | > 10 | > 300 | > 10 | > 30 | > 10 | > 30 | > 10 | > 30 | > 10 | > 10 | C[C@@H]1O[C@@H]1P(=O)(O)O [FOSFOMYCIN]
5 | > 30 | > 30 | > 30 | 1.7 | > 30 | > 30 | > 30 | 1.4 | > 30 | 5.3 | > 30 | > 30 | COc1ccc2c(c1)C(=O)N(CCc1ccc(S(=O)(=O)NC(=O)NC3CCCCC3)cc1)C(=O)C2(C)C [GLIQUIDONE]
6 | > 10 | > 10 | > 30 | > 300 | > 30 | > 10 | > 30 | > 10 | > 30 | > 30 | > 10 | > 10 | NS(=O)(=O)c1cc2c(cc1Cl)NCNS2(=O)=O [HYDROCHLOROTHIAZIDE]
7 | > 10 | > 10 | > 10 | > 300 | > 10 | > 30 | > 10 | > 30 | > 10 | > 30 | > 10 | > 30 | NC[C@H]1O[C@H](O[C@H]2[C@H](O)[C@@H](O[C@H]3O[C@H](CO)[C@@H](O)[C@H](N)[C@H]3O)[C@H](N)C[C@@H]2N)[C@H](O)[C@@H](O)[C@@H]1O [KANAMYCIN]

Row | SMILES | AC50 [1] [µM] | AC50 [2] [µM] | AC50 [3] [µM] | AC50 (Bile salt export pump) [µM] | AC50 [4] [µM] | AC50 [5] [µM] | AC50 (Melanocortin receptor 3) [µM] | AC50 [6] [µM] | AC50 [7] [µM] | AC50 [8] [µM] | AC50 [9] [µM] | AC50 [10] [µM]
8 | CN(CCOc1ccc(NS(C)(=O)=O)cc1)CCc1ccc(NS(C)(=O)=O)cc1 [DOFETILIDE] | > 10 | > 30 | > 30 | > 300 | > 30 | > 30 | > 30 | > 30 | > 30 | > 30 | > 30 | > 10
9 | COC(=O)[C@@H]1CC2=CC(=O)CC[C@]2(C)[C@@]23O[C@@H]2C[C@@]2(C)[C@@H](CC[C@@]24CCC(=O)O4)[C@H]13 [EPLERENONE] | > 30 | > 30 | > 30 | > 300 | > 30 | > 30 | > 30 | > 30 | > 30 | > 30 | > 30 | > 30
10 | CC(C)Cc1ccc(CC(=O)O)cc1 [IBUFENAC] | > 30 | > 30 | > 30 | > 300 | > 30 | > 30 | > 30 | > 30 | > 30 | > 30 | > 30 | > 30
